Target: T1, Human NPT2c (Homo sapiens, UniProt Q8N130)
T1 construct: Full Length cDNA Cloning and Generation of Cell Lines Over-Expressing Human NPT2a, NPT2c, Pit1, and Pit2; host or cells: CHO-K1 / T-REx CHO, pJTI R4 CMV-TO, tetracycline-induced
T1 sequence (Q8N130 1-599): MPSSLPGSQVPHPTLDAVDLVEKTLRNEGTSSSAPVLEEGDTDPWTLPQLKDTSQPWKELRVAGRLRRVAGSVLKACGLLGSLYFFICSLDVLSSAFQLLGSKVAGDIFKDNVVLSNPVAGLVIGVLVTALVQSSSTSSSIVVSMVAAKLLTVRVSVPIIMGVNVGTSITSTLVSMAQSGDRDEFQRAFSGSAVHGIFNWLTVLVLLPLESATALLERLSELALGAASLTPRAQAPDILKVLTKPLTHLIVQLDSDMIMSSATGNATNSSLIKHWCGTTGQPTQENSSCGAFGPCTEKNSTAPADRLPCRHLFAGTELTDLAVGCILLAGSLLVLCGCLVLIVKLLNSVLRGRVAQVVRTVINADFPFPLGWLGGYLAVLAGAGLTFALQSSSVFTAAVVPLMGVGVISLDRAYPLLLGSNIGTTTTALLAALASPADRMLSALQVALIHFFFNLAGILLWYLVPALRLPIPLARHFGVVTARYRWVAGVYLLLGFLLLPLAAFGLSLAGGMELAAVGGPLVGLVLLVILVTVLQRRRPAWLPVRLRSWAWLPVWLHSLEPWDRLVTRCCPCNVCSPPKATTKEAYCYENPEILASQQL
Assay: 33P-phosphate uptake in CHO cells expressing human NPT2c
Type: cell-based
Procedure: T‐Rex™ Chinese Hamster Ovary cells (CHO; Thermo Fisher Scientific) stably expressing human, mouse, or rat NPT2b under a tetracycline‐inducible promoter were generated using standard cDNA transfection and clone selection procedures (see Supporting Information). Cells were plated in 96‐well CytoStar‐T® scintillating microplates and were incubated overnight in growth media plus 100 ng/ml of tetracycline to induce expression of NPT2b. The next day, cells were washed 3 times with 200 µl assay buffer (137 mM NaCl, 5.4 mM KCl, 2.8 mM CaCl2, 1.2 mM MgSO4, and 14 mM Tris‐HCl buffer, pH 7.5). LY3358966 serially diluted 1‐to‐3 in DMSO was added to cells with assay buffer. An equal volume of H3 ^33PO4 (PerkinElmer) in assay buffer supplemented with 5 µM potassium phosphate was then added to initiate radiolabeled phosphate (^33P‐phosphate) uptake. […] The plate was immediately read on a Wallac MicroBeta Trilux liquid scintillation counter. Percent inhibition at all concentrations tested was calculated, and IC50 values were then determined using a 4‐parameter logistic curve fitting equation.
Similar methods were used to measure the effects of LY3358966 on other transporters of interest, except that constitutive promoters were used to generate CHO cells over‐expressing human PiT1 and PiT2. The ^33P‐phosphate uptake was measured after 45 min at 20°C for the NPT2a, NPT2c, PiT1, and PiT2 assays. […]

How did the IC50 (geometric mean, 45 min at 20°C) turn out when `CC1(C)CN(C(=O)NCCCCO)CCN1Cc1cccc(C(=O)Nc2sc3c(c2C(=O)Nc2cc(F)c(CCc4ccc(C(=O)O)cc4)c(F)c2)CCCC3)c1` [LY3358966, 4‐[2‐[2,6‐difluoro‐4‐[[2‐[[3‐[[4‐(4‐hydroxybutylcarbamoyl)‐2,2‐dimethyl‐piperazin‐1‐yl]methyl]benzoyl]amino]‐4,5,6,7‐tetrahydrobenzothiophene‐3‐carbonyl]amino]phenyl]ethyl]benzoic acid] was run?
Its IC50 is 251 nM.

And the Selectivity (ratio of IC50 of human NPT2c assay to that of human NPT2b assay)?
The Selectivity was 8.
